Tests used:
tyrosinase = conditions: Fig. 1; cited from earlier work
[1] = system: mushroom tyrosinase (EC 1.14.18.1); experiment: Mushroom tyrosinase inhibition assay, L-Dopa as substrate (diphenolase activity, dopachrome at 490 nm); assay type: biochemical; conditions: for % Inhibition at 80 µM: 80 µM compound; for % Inhibition at 80 µM / % Inhibition at 30 µM: mean of three independent experiments; for % Inhibition at 30 µM: 30 µM compound
Procedure: We conducted the assay of mushroom tyrosinase (EC 1.14.18.1) utilizing L-Dopa as the substrate, as previously described, with minor adaptations. We employed a spectrophotometric technique to assess the enzyme's diphenolase activity, observing dopachrome formation at 490 nm. […] In a 96-well microplate, 10 µl of the test samples were combined with 140 µl of 50 mM phosphate buffer (pH = 6.8). Subsequently, 20 µl of tyrosinase (273 U mL^−1) was introduced. Following a pre-incubation period of 20 min at 28 °C, 20 µl of L-Dopa solution (resulting in a final concentration of 0.7 mM) was added to the mixture. Following a 10-min incubation, the absorbance of the samples was measured. The inhibitory activity of the tested compounds was stated as IC50. The ratio percentage of inhibition was calculated according to the equation below: Inhibition%=100Abscontrol-Abscompound/Abscontrol

mushroom tyrosinase = experiment: Kinetic study of tyrosinase inhibition (Lineweaver-Burk plots); assay type: biochemical
Text: Mechanism and type of inhibition were elucidated through kinetic investigations. […] Lineweaver–Burk plots, depicting 1/V against 1/[S], were constructed to illustrate the inhibition of tyrosinase by 6b across varying concentrations of both 6b and L-Dopa, the substrate. In this context, Km represents the Michaelis–Menten constant, while Vmax signifies the maximum reaction velocity.
Based on these findings, it can be inferred that the inhibitory effect of compound 6b is competitive.
The inhibitor concentrations employed ranged from 2 to 20 μM, while the substrate (L-Dopa) concentrations in the rane of 0.1 mM to 1.5 mM through all kinetic experiments. The pre-incubation and measurement durations followed the protocol outlined in the mushroom tyrosinase inhibition assay. The maximum initial velocity was ascertained from the initial linear segment of absorbance within a 10-min window following the introduction of L-Dopa, with measurements taken at 1-min intervals. Utilizing the Lineweaver–Burk plot technique, we calculated the Michaelis constant (Km) and the tyrosinase activity's maximal velocity (Vmax). This plot involved various L-Dopa concentrations as the substrate. For assessing the enzyme's inhibition type, we employed Lineweaver–Burk plots featuring the reciprocal of velocities (1/V) plotted against the reciprocal of substrate concentrations (1/[S] mM^−1).

Row | Molecule | % Inhibition at 80 µM [1] [%] | melting point [°C] | further results
1 | CC1(C)CC(=O)C2=C(C1)Oc1ncn3ncnc3c1C2c1ccccc1 (centres unmarked) [1f] | – | – | Inhibition percentage (tyrosinase): 78%
2 | COc1cc(C2C(C#N)=C(N)Oc3c2oc(CO)cc3=O)ccc1OCc1ccc(Cl)cc1 (centres unmarked) [6m, 2-Amino-4-(4-((4-cholorobenzyl)oxy)-3-methoxyphenyl)-6-(hydroxymethyl)-8-oxo-4,8-dihydropyrano[3,2-b]pyran-3-carbonitrile] | 49.31 ± 6.12 | – | –
3 | O=c1cc(/C=C/c2cc(=O)c(O)co2)occ1O [1c] | – | – | IC50 (tyrosinase): 30.6 µM
4 | COc1cc(C2C(C#N)=C(N)Oc3c2oc(CO)cc3=O)ccc1OCc1ccc(F)cc1 (centres unmarked) [6l, 2-Amino-4-(4-((4-fluorobenzyl)oxy)-3-methoxyphenyl)-6-(hydroxymethyl)-8-oxo-4,8-dihydropyrano[3,2-b]pyran-3-carbonitrile] | 49.09 ± 4.91 | – | –
5 | COc1cc(C2C(C#N)=C(N)Oc3c2oc(CO)cc3=O)ccc1OCc1ccc(C)cc1 (centres unmarked) [6o, 2-Amino-6-(hydroxymethyl)-4-(3-methoxy-4-((4-methylbenzyl)oxy)phenyl)-8-oxo-4,8 dihydropyrano[3,2-b]pyran-3-carbonitrile] | 44.31 ± 4.18 | – | –
6 | Cc1ccc(COc2ccc(C3C(C#N)=C(N)Oc4c3oc(CO)cc4=O)cc2)cc1 (centres unmarked) [6e, 2-Amino-6-(hydroxymethyl)-4-(4-((4-methylbenzyl)oxy)phenyl)-8-oxo-4,8-dihydropyrano[3,2-b]pyran-3-carbonitrile] | 48.63 ± 6.37 | 215 to 218 | –
7 | N#CC1=C(N)Oc2c(oc(CO)cc2=O)C1c1cccc(OCc2ccc(Cl)cc2)c1 (centres unmarked) [6h, 2-Amino-4-(3-((4-chlorobenzyl)oxy)phenyl)-6-(hydroxymethyl)-8-oxo-4,8-dihydropyrano[3,2-b]pyran-3-carbonitrile] | 67.95 ± 4.54 | 232 to 236 | IC50 [1]: 10.7 ± 4.96 µM; % Inhibition at 30 µM [1]: 65.90 ± 5.09%
8 | N#CC1=C(N)Oc2c(oc(CO)cc2=O)C1c1cccc(OCc2ccccc2)c1 (centres unmarked) [6f, 2-Amino-4-(3-(benzyloxy)phenyl)-6-(hydroxymethyl)-8-oxo-4,8-dihydropyrano[3,2-b]pyran-3-carbonitrile] | 42.27 ± 2.72 | 235 to 238 | tyrosinase inhibitory activity (in words) [1]: no inhibitory activity
9 | O=c1cc(Cc2cn(Cc3cccc4ccccc34)nn2)occ1O [1b] | – | – | IC50 (tyrosinase): 0.06 µM
10 | N#CC1=C(N)Oc2c(oc(CO)cc2=O)C1c1cccc(OCc2ccc(F)cc2)c1 (centres unmarked) [6g, 2-Amino-4-(3-((4-fluorobenzyl)oxy)phenyl)-6-(hydroxymethyl)-8-oxo-4,8-dihydropyrano[3,2-b]pyran-3-carbonitrile] | 88.63 ± 6.36 | 239 to 242 | IC50 [1]: 9.72 ± 2.47 µM; % Inhibition at 30 µM [1]: 77.95 ± 4.54%
11 | N#CC1=C(N)Oc2c(oc(CO)cc2=O)C1c1ccc(OCc2ccc(Cl)cc2)cc1 (centres unmarked) [6c, 2-Amino-4-(4-((4-chlorobenzyl)oxy)phenyl)-6-(hydroxymethyl)-8-oxo-4,8-dihydropyrano[3,2-b]pyran-3-carbonitrile] | 50.01 ± 4.34 | 236 to 239 | IC50 [1]: 79.2 ± 3.3 µM; % Inhibition at 30 µM [1]: 44.09 ± 2.94%
12 | CCOC(=O)C1=C(N)Oc2c(ccc3ccccc23)C1c1cccc(Cl)c1 (centres unmarked) [1e] | – | – | IC50 (tyrosinase): 34.1 µM
13 | N#CC1=C(N)Oc2c(oc(CO)cc2=O)C1c1ccc(OCc2ccc(F)cc2)cc1 (centres unmarked) [6b, 2-Amino-4-(4-((4-fluorobenzyl)oxy)phenyl)-6-(hydroxymethyl)-8-oxo-4,8-dihydropyrano[3,2-b]pyran-3-carbonitrile] | 89.27 ± 2.59 | 227 to 230 | type of inhibition (mushroom tyrosinase; Lineweaver-Burk plot, Vmax constant, Km rising): competitive; Ki (mushroom tyrosinase; secondary plot of Km vs concentration of inhibitor, L-Dopa 0.1-1.5 mM, read-out: inhibition constant Ki): 7.57 µM; IC50 [1]: 7.69 ± 1.99 µM; % Inhibition at 30 µM [1]: 79.81 ± 6.18%
14 | N#CC1=C(N)Oc2c(oc(CO)cc2=O)C1c1ccc(OCc2ccccc2)cc1 (centres unmarked) [6a, 2-Amino-4-(4-(benzyloxy)phenyl)-6-(hydroxymethyl)-8-oxo-4,8-dihydropyrano[3,2-b]pyran-3-carbonitrile] | 47.90 ± 3.90 | 221 to 224 | tyrosinase inhibitory activity (in words) [1]: inactive
15 | COc1cc(C2C(C#N)=C(N)Oc3c2oc(CO)cc3=O)ccc1OCc1ccc(Br)cc1 (centres unmarked) [6n, 2-Amino-4-(4-((4-boromobenzyl)oxy)-3-methoxyphenyl)-6-(hydroxymethyl)-8-oxo-4,8-dihydropyrano[3,2-b]pyran-3-carbonitrile] | 21.36 ± 3.63 | – | –
16 | N#CC1=C(N)Oc2c(oc(CO)cc2=O)C1c1cccc(OCc2ccc(Br)cc2)c1 (centres unmarked) [6i, 2-Amino-4-(3-((4-bromobenzyl)oxy)phenyl)-6-(hydroxymethyl)-8-oxo-4,8-dihydropyrano[3,2-b]pyran-3-carbonitrile] | 67.72 ± 7.27 | 236 to 238 | IC50 [1]: 15.3 ± 3.17 µM; % Inhibition at 30 µM [1]: 59.54 ± 5.44%
17 | COc1cc(C2C(C#N)=C(N)Oc3c2oc(CO)cc3=O)ccc1OCc1ccccc1 (centres unmarked) [6k, 2-Amino-4-(4-(benzyloxy)-3-methoxyphenyl)-6-(hydroxymethyl)-8-oxo-4,8 dihydropyrano[3,2-b]pyran-3-carbonitrile] | 10.25 ± 3.48 | – | –
18 | Nn1c(SCc2cc(=O)c(O)co2)nnc1-c1ccc(Cl)cc1 [1a] | – | – | IC50 (tyrosinase): 4.5 µM
19 | N#CC1=C(N)Oc2c(oc(CO)cc2=O)C1c1ccc(OCc2ccc(Br)cc2)cc1 (centres unmarked) [6d, 2-Amino-4-(4-((4-bromobenzyl)oxy)phenyl)-6-(hydroxymethyl)-8-oxo-4,8 dihydropyrano[3,2-b]pyran-3-carbonitrile] | 66.36 ± 3.64 | 214 to 216 | IC50 [1]: 34 ± 2.53 µM; % Inhibition at 30 µM [1]: 48.86 ± 3.53%
20 | 2-Amino-4-(3-((para-tolyl)oxy)phenyl)-6-(hydroxymethyl)-8-oxo-4,8-dihydropyrano[3,2-b]pyran-3-carbonitrile [6j] | 20.45 ± 4.54 | – | tyrosinase inhibitory activity (in words) [1]: without any activity
21 | O=c1cc(CSc2nnc(-c3ccccc3)n2NCc2ccc(O)c(O)c2)occ1O [1d] | – | – | IC50 (tyrosinase): 1.35 µM
